Laboratory results from US20230242669A1, “ANTIBODY THAT BINDS ERBB-2 AND ERBB-3” (Merus N.V., priority 2014, published 2023).

Experiments:
[1] = system: SKBR-3 cells with FcγRIIIa reporter cells; assay: ADCC Reporter Bioassay (Promega); assay type: cell-based, human; conditions: SKBR-3, V158 effector cells
Procedure: In a different ADCC setup, the ADCC Reporter Bioassay (Promega) was used. The bioassay uses engineered Jurkat cells stably expressing the FcYRIIIa receptor, V158 (high affinity) or F158 (low affinity) variant, and an NFAT response element driving expression of firefly luciferase. The assay was validated by comparing data obtained with the ADCC Reporter Bioassay to the classical ^51Cr release assay. The ADCC assays were performed using the Promega ADCC Bioassay kit using 384 white well plates. In this experimental setup SKBR-3 cells were plated at a density of 1000 cells/well in 30 µl assay medium (RPMI with 4% low IgG serum) 20-24 H before the bioassay. The next day, the culture medium was removed. […] 10 µl antibody dilutions were added to the wells. The starting concentration of the antibody was 10 µg/ml and a 10 points semi-log fold serial dilution was generated to provide a full dose-response curve. Finally, 5 µl of ADCC Bioassay effector cells (15000 cells/well, V158) were added. The cells were incubated for 6 H at 37° C. Next, 15 µl BIO-Glo luciferase substrate was added and 5 minutes later luminescence was detected in a plate reader.
ADCC activity was measured by measuring luciferase activity. […] (FIG. 15)

BT-474 and SKBR-3 cells = assay: BT-474 and SKBR-3 growth in […] with HRG (morphology, PCA); assay type: cell-based, human
Procedure: The cells were tested at the company Ocello based in Leiden, the Netherlands that grows cells in three dimensional […]® and uses principle component analysis to distinguish non-treated cells from treated cells. 2000 SK-BR-3 or 2250 BT474 cells were seeded in 15µl […]® per well of a 384 well plate (Greiner 781091 ). […] In addition a dose-dependent titration of HRG was included as a positive control. Each dose was tested in quadruplicate. Cells were incubated for 7 days in a cell culture incubator at 37° C., 5% CO2. Next, the cells were fixed and actin cytoskeleton of the cells was stained with phalloidin and the nuclei are stained with Hoechst. Next, fluorescent images were taken at different levels through the gel (Z-stack) and the images were superimposed. A broad range of morphological features were measured (800 in total). Only features that differed between medium and HRG treatments were selected for analysis. […] Both multiparameter and single parameter analyses were made. For single parameter measurements, t-tests were performed to compare treatments (HRG or antibody) to medium. P-values for each point were determined. […]
The assay was performed in […]®, as described above, and morphological features were analyzed. […]

JIMT-1 tumor = assay: JIMT-1 xenograft study; assay type: in vivo, CB.17 SCID mice; conditions: 2.5 and 25 mg/kg ip qwk × 4
Procedure: JIMT-1 human breast carcinoma cells were grown in DMEM containing 10% fetal bovine serum, 100 units/mL penicillin G sodium, 100 µg/mL streptomycin sulfate, 25 µg/mL gentamicin, and 2 mM glutamine until the time of implantation. At the day of implantation JIMT-1 breast cells were harvested during log phase growth and resuspended in cold PBS. […] Each mouse was injected subcutaneously in the right flank with 5 ×10^6 tumor cells (0.2 mL cell suspension). The tumors were measured with a caliper in two dimensions to monitor size as the mean volume twice per week. Once tumors had reached approximately 100-150 mm^3 in size animals were enrolled in the efficacy study. Outlier animals -tumor volume - were removed and the mice were randomly distributed into groups of 10 mice each. Mice were injected once weekly (antibody) or daily (lapatinib) for a period of four weeks. Details of the treatment groups are depicted in Table 11.
Tumor sizes were measured weekly by caliper measurement.

JIMT-1 cells = assay: JIMT-1 proliferation in soft agar; assay type: cell-based, human; conditions: 10-0.003 µg/ml, 8 days
Procedure: To this aim 96 well suspension cell culture plates were prepared. 100 µL of the soft agar bottom layer (0.6% final concentration in complete medium) was poured and left to solidify. 50 µL of the soft agar top layer (0.4% final concentration) containing 10.000 JIMT-1 cells/well were then added on top, solidified and such 96 well plates incubated overnight at 37° C., 10% CO2. […] Subsequently, the assay was incubated in cell culture incubators for 8 days. Finally, the cells were incubated with Alamar Blue for 3-5 h at 37° C. and fluorescence intensity was determined (excitation: 560 nm; emission: 590 nm). […] (FIG. 8).

## PB4188: bispecific HER2xHER3 IgG: HER2 arm MF3958, HER3 arm MF3178
[1]
  ADCC potency compared to parental monoclonals or their combination: higher ADCC potentency
BT-474 and SKBR-3 cells; BT-474 and SKBR-3, in the presence of HRG
  Activity compared to pertuzumab + trastuzumab, PB3448 and MEHD7945A: superior activity
BT-474 and SKBR-3 cells; SKBR-3, 10 ng/ml HRG
  Effect on HRG induced proliferation and branching/invasion phenotype: completely revert the HRG induced phenotype
JIMT-1 tumor
  Efficacy on tumor size: more potent than lapatinib or the combination pertuzumab and trastuzumab
JIMT-1 cells
  Inhibition of JIMT-1 proliferation: dose dependent inhibition of JIMT-1 proliferation
